Data from US12714677B2, “Dual chamber syringe for administering a hormone encapsulated by a hydrogel” (VITALTE LIFESCIENCES INC., priority 2024, dated 2026).

Columns and labels:
[1] = E2 release from hydrogel discs, E2 pellets and E2 powder into incubation medium (ELISA); type: physicochemical; details: 50 mL incubation medium, 37° C., 6 rpm
Excerpt: (§1) Low standards were removed from the analysis.

[2] = Release assay on E2 microspheres (same manner as discs); type: physicochemical; details: day 3
Protocol: Release assays on the E2 microspheres were conducted in the same manner as described above for the discs.
as §1

[3] = cited from earlier work

| Structure (SMILES) | E2 released into incubation media (concentration) ([1]; day 1 / 24 hours) | E2 released into incubation media (concentration) ([1]; day 2 / 48 hours) | E2 released into incubation media (accumulated concentration) ([1]; day 3 / 72 hours) | E2 release level [2] | solubility factor in water compared to E2 [3] |
| --- | --- | --- | --- | --- | --- |
| C[C@]12CC[C@@H]3c4ccc(O)cc4CC[C@H]3[C@@H]1CC[C@@H]2O [E2 powder, Beta-estradiol] | about 1.85 mg/L | reached the saturation point of the incubation media | maintained the saturation point concentration | approximates the saturation level of E2 in the incubation medium | – |
| C[C@]12CC[C@H]3[C@@H](CCC4=CC(=O)CC[C@@]43C)[C@@H]1CC[C@@H]2O [T, Testosterone] | – | – | – | – | much higher |
